Data from patent US20040121947A1, “Compounds which inhibit beta-secretase activity and methods of use thereof” (Oklahoma Medical Research Foundation, priority 2000, published 2004).
*1 amine or outer side, *2 acyl side, *3 side chain or, on linkers, in order; H or OH if unused. Where a SMILES comes first, the peptide text is derived from it. [ ]: non-standard residue; d: D form. The star is where a group is joined. LeuΨ(S-CHOHCH2)Ala = CC(C)C[C@H](N[*:1])[C@@H](O)C[C@@H](C)C(=O)[*:2]; 5FAM = O=C1OC2(c3ccc(O)cc3Oc3cc(O)ccc32)c2ccc(C(=O)*)cc21; Ahx = NCCCCCC(=O)O

What was measured:
[1] = test system: HEK293 cells; assay: Penetration of fluorescently labelled inhibitors into cultured cells (flow cytometry); assay type: cell-based, human; conditions: incubation 10 to 30 minutes
Method: Fluorescently labelled inhibitors or fluorescein (Fs) as a control were incubated with suspended cells for time intervals ranging from 10 to 30 minutes. Cells were fixed with paraformaldehyde and permeabilized in 0.2% Tween-20 in PBS for 6 minutes and incubated with anti-fluorescein-Alexa™ 488 antibody (Molecular Probes, Eugene, Oreg.) in order to enhance detection of intracellular inhibitor present from penetration. Flow cytometry (FACSCalibur™) and confocal fluorescent microscopy (Leica TCS NT™) were performed at the Flow and Image Cytometry Lab, OUHSC.

[2] = molecular target: T1, memapsin 2 (Homo sapiens, UniProt P56817); assay: Inhibition of memapsin 2 proteolytic activity, fluorogenic substrate FS-2; assay type: biochemical; conditions: memapsin 2, carrier peptide-inhibitor conjugates; read-out: Ki apparent
T1 construct: pET-11 vector-derived residues 1-15 of promemapsin 2-T1 (N, cleaved yes); made in house; host or cells: E. coli
T1 sequence (P56817 41-454 limits assumed): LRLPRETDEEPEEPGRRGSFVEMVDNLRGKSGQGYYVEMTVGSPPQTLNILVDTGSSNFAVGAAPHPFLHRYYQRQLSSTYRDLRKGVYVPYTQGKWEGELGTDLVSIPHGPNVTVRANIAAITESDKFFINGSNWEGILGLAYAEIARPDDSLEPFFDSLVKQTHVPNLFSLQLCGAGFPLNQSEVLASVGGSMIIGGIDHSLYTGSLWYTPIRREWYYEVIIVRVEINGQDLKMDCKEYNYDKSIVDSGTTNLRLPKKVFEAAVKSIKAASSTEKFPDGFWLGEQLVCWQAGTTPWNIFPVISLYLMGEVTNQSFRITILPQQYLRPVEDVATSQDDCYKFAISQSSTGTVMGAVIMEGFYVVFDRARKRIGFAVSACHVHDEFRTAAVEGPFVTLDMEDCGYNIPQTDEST
Outline: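 Spontaneously activated memapsin 2 (80 nM final) equilibrated with inhibitor (about 10 nM–10 μM) in 0.1 M NaOAc pH 4.0 with 10% DMSO for 20 min at 37 °C, with fluorogenic substrate FS-2. Ki converted from Ki apparent using substrate concentration and Km.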

[3] = Transport of conjugated inhibitors to mouse blood, spleen and brain after i.p. injection
Method: Whole blood cells (with EDTA as anti-coagulant in the syringe or in the capillary tube) were isolated from anesthetized animals from the orbital artery or by heart puncture and diluted 1:10 in PBS. Prior to the harvest of other tissue samples, animals were anesthetized and perfused with 150 ml of neutral-buffered 10% formalin. Spleens were harvested intact. Brains were harvested and cerebral hemispheres separated, one for sectioning by cryostat, the other for single cell isolation for flow cytometry.
Sections of the brain hemispheres were obtained by soaking in OCT/PBS at 4° C. for overnight, recovered and frozen in Histo Prep Media.
To collect single cell suspensions, spleens and brain hemispheres were homogenized through a 30 μm screen and directly analyzed by flow cytometric analysis.

[4] = test system: plasma Aβ40; assay: Inhibition of Aβ production in transgenic mice (plasma Aβ40 ELISA); assay type: in vivo, tg2576 mice; conditions: for Effect on plasma Aβ40: i.p. injection, 2 hours following injection
Method: Six-month-old tg2576 mice (n=21) were injected intraperitoneally (i.p.) 200 μg of conjugate CPI-3 or with control DMSO, in 200 μl of PBS. Plasma were collected from anesthetized animals by orbital bleed or sephaneous vein into heparinized capillary tubes and clarified by centrifugation. Plasma Aβ 1-40 levels were determined by capture ELISA (BioSource International, Camarillo, Calif.). The peptide analogue of CPI-3, with an amide group instead of the hydroxyethylene isostere was synthesized by SynPep (Camarillo, Calif.).
Since the conjugate inhibitors can cross the blood brain barrier in vivo, enter cells both in vitro and in vivo, and inhibit Aβ production in vitro, inhibition of Aβ production in vivo was determined. Tg2576 mice, expressing the Swedish mutation of the human amyloid precursor protein (including SEQ ID NO: 11) (Hsiao, K., et al., Science 274:99-102 (1996), the teachings of which are incorporated hereby in their entirety) were injected with CPI-3, which is identical in amino acid sequence to CPI-2 and lacks the amino-terminal fluorescein (FAM) derivative. Blood was collected from tg2576 animals at time intervals following injection of 400 μg of CPI-3.
At ages up to 9 months, plasma Aβ in the tg2576 mice serves as a reliable marker for brain Aβ production as a result of memapsin 2 activity (Kawarabayashi, T., et al., J Neurosci. 21:372-381 (2001)). Nine tg2576 mice were injected intraperitoneally with various doses of inhibitor CPI-3.

[5] = test system: plasma Aβ40; assay: Inhibition of Aβ production in transgenic mouse model of Alzheimer's disease (plasma Aβ40 ELISA); assay type: in vivo, APP/F mice
Method: Compounds MMI-138, MMI-165, and MMI-185 were synthesized as described above. Compounds were dissolved in 1 ml of dimethyl sulfoxide (DMSO) to a final concentration of about 1 mg/ml for MMI-165 and MMI-185, and about 10 mg/ml for MMI-138. […] Inhibitors were diluted into PBS or H2O immediately prior to injection, as described below. Inhibition constants were determined by methods described by Ermolieff, et al. (Biochem. 39:12450-12456 (2000), the teachings of which are incorporated hereby in their entirety).
The tg2576 strain of mice was obtained from Taconic (Germantown, N.Y.). The APP/F strain of mice were obtained by mating the tg2576 mice with the FVB/N strain. To determine presence of the Swedish APP gene in APP/F mice, the DNA from mice was isolated according to the Qiagen Dneasy™ Tissue Kit. PCR (Qiagen kit and protocol) was used to amplify the fragment of DNA corresponding to the human Swedish APP gene. The following primers were used: […]
At the age of three months, animals of the Alzheimer's disease mouse model APP/F were injected intraperitoneally (i.p.) with about 163 nanomoles of either compounds MMI-138 (molecular weight 674 g/mole; 110 μg per animal, n=2), MMI-165 (molecular weight 626 g/mole; 102 μg per animal, n=2), or MMI-185 (molecular weight 686; 112 μg per animal, n=2).
Heparinized capillary tubes collected blood samples from anesthetized animals from either the retro-orbital sinus or from the saphenous vein at specified intervals following injection. The blood samples were transferred to sterile 1.5 mL microcentrifuge tubes, centrifuged at 5,100 RPM for 10 minutes to recover the plasma (supernatant), and stored at −70° C. until analysis for the Aβ40 by Enzyme Linked-Immuno-Sorbent Assay (ELISA).
A sandwich ELISA (BioSource International, Camarillo, Calif.) was used to determine the levels of Aβ40 in plasma samples. The ELISA utilizes a primary antibody specific for human Aβ for the immobilization of the amino-terminus and a detection antibody specific for the carboxy-terminal amino acids of Aβ40. A conjugated secondary antibody was used to detect the ternary complex, using a stabilized chromogen substrate, quantifiable following addition of 1 M HCl, with the optical densities measured at 450 nm. The procedures were followed according to the BioSource protocol. Optical densities were converted to pg/ml quantities of Aβ40 using a linear regression of the optical densities of standards obtained from the commercial kit, to their known concentrations.

[6] = Martin et al. 1999; cited from earlier work
[7] = four injections at 2 hour intervals

CC(C)C[C@H](NC(=O)[C@H](CC(N)=O)NC(=O)[C@@H](NC(=O)[C@H](CCC(=O)O)NC(=O)CCCCCNC(=O)c1ccc2c(c1)C(=O)OC21c2ccc(O)cc2Oc2cc(O)ccc21)C(C)C)[C@@H](O)C[C@@H](C)C(=O)N[C@@H](C)C(=O)N[C@@H](CCC(=O)O)C(=O)N[C@@H](Cc1ccccc1)C(=O)NCC(=O)N[C@@H](Cc1ccc(O)cc1)C(=O)NCC(=O)N[C@@H](CCCNC(=N)N)C(=O)N[C@@H](CCCCN)C(=O)N[C@@H](CCCCN)C(=O)N[C@@H](CCCNC(=N)N)C(=O)N[C@@H](CCCNC(=N)N)C(=O)N[C@@H](CCC(N)=O)C(=O)N[C@@H](CCCNC(=N)N)C(=O)N[C@@H](CCCNC(=N)N)C(=O)N[C@@H](CCCNC(=N)N)C(=O)O [CPI-1] ({5FAM-Ahx}-EVN[LeuΨ(S-CHOHCH2)Ala]AEFGYGRKKRRQRRR-OH)
Penetration of cultured cells (intracellular fluorescence) [1]: readily penetrated cultured cells within minutes
Ki [2]: 39 nM
Uptake into brain tissue ([3]; 8 hours after i.p. injection, flow cytometry or confocal microscopy): penetration of the fluorescent conjugate into all brain cells
Splenocytes with fluorescence peak shift ([3]; splenectomy 2 hours after i.p. injection): ~100%
Blood cells with strong fluorescence signal ([3]; whole blood 20 minutes after i.p. injection, 0.3 nmol): approximately 100%

CC(C)C[C@H](NC(=O)[C@H](CCC(=O)O)NC(=O)CCCCCNC(=O)c1ccc2c(c1)C(=O)OC21c2ccc(O)cc2Oc2cc(O)ccc21)C(=O)N[C@@H](CC(=O)O)C(=O)N[C@@H](CC(C)C)[C@@H](O)C[C@@H](C)C(=O)N[C@H](C(=O)N[C@@H](CCC(=O)O)C(=O)N[C@@H](Cc1ccccc1)C(=O)NCC(=O)NCC(=O)N[C@H](CCCNC(=N)N)C(=O)N[C@H](CCCNC(=N)N)C(=O)N[C@H](CCCNC(=N)N)C(=O)N[C@H](CCCNC(=N)N)C(=O)N[C@H](CCCNC(=N)N)C(=O)N[C@H](CCCNC(=N)N)C(=O)N[C@H](CCCNC(=N)N)C(=O)N[C@H](CCCNC(=N)N)C(=O)N[C@H](CCCNC(=N)N)C(=O)O)C(C)C [CPI-2] ({5FAM-Ahx}-ELD[LeuΨ(S-CHOHCH2)Ala]VEFGG[dR][dR][dR][dR][dR][dR][dR][dR][dR]-OH)
Penetration of cultured cells (intracellular fluorescence) [1]: readily penetrated cultured cells within minutes
Ki [2]: 58 nM
Splenocytes with fluorescence peak shift ([3]; mouse, in vivo, ip): ~100%

CC(C)C[C@H](NC(=O)[C@@H](N)CCC(=O)O)C(=O)N[C@@H](CC(=O)O)C(=O)N[C@@H](CC(C)C)[C@@H](O)C[C@@H](C)C(=O)N[C@H](C(=O)N[C@@H](CCC(=O)O)C(=O)N[C@@H](Cc1ccccc1)C(=O)NCC(=O)NCC(=O)N[C@H](CCCNC(=N)N)C(=O)N[C@H](CCCNC(=N)N)C(=O)N[C@H](CCCNC(=N)N)C(=O)N[C@H](CCCNC(=N)N)C(=O)N[C@H](CCCNC(=N)N)C(=O)N[C@H](CCCNC(=N)N)C(=O)N[C@H](CCCNC(=N)N)C(=O)N[C@H](CCCNC(=N)N)C(=O)N[C@H](CCCNC(=N)N)C(=O)O)C(C)C [CPI-3] (H-ELD[LeuΨ(S-CHOHCH2)Ala]VEFGG[dR][dR][dR][dR][dR][dR][dR][dR][dR]-OH)
Plasma Aβ40 level relative to initial value ([4]; 2 hours following i.p. injection): about one third
Aβ level, average low, % of the average initial value [4, 7]: 29%
Inhibition of plasma Aβ [4, 7]: about 80%
Effect on plasma Aβ40 [4]: significant dose-dependent reduction
Half-life of inhibition of plasma Aβ40 ([4]; single i.p. injection): 3 h
Time of return of plasma Aβ40 level to the initial value ([4]; single i.p. injection): ≤ 8 h

CC(C)C[C@H](NC(=O)[C@@H](N)CCC(=O)O)C(=O)N[C@@H](CC(=O)O)C(=O)N[C@@H](CC(C)C)[C@@H](O)C[C@@H](C)C(=O)N[C@H](C(=O)N[C@@H](CCC(=O)O)C(=O)N[C@@H](Cc1ccccc1)C(=O)O)C(C)C [OM00-3, ELDL*AVEF] (H-ELD[LeuΨ(S-CHOHCH2)Ala]VEF-OH)
Decrease in plasma Aβ40 ([5]; 2 hours following injection of 163 nmoles): 16%
Inhibition of Aβ40 production in vivo ([5]; plasma Aβ40): failed to inhibit Aβ40 production
Effect on plasma Aβ40 [4]: did not reduce plasma Aβ40 levels

CC(C)(C)NC(=O)[C@@H]1CN(Cc2cccnc2)CCN1C[C@@H](O)C[C@@H](Cc1ccccc1)C(=O)N[C@H]1c2ccccc2C[C@H]1O [indinavir]
Crossing of the blood-brain barrier [6]: can cross the blood-brain barrier
